# Measured values from US20190330597A1, “COMPOSITION FOR CULTURE OF PLURIPOTENT STEM CELLS” (The Francis Crick Institute Limited, priority 2017, published 2019).
# What was measured:
# human embryos = assay: Human embryo culture with growth factor treatment, immunofluorescence and automated quantification; type: cell-based
# Description: Human embryos were donated to the research project by informed consent under the UK Human Fertilisation and […] Licence number R0162. Vitrified embryos frozen in straws were thawed by quickly transferring the contents of the straw from liquid nitrogen directly into thaw solution (Irvine Scientific Vitrification Thaw Kit) and thawed as per manufacturer's instructions. Embryos frozen in cryopets were first thawed for 3 seconds in a 37° C. waterbath before transferring into thaw solution (Irvine Scientific Vitrification Thaw Kit). Embryos frozen in glass ampoules were thawed completely in a 37° C. waterbath after the top of the vial was removed under liquid nitrogen. The contents were emptied onto a petri dish and the embryo transferred through a gradient of sucrose solutions (Quinn's Advantage Thaw Kit, Origio) as per manufacturer's instructions.
# Embryos were routinely cultured in Global Media (LifeGlobal) supplemented with 5 mg/mL LifeGlobal Protein Supplement pre-equilibrated in an incubator at 37° C. and 5% CO2. For growth factor or inhibitor treatment, these conditions were further supplemented with FGF2 (3718-FB-01M, R&D) or IGF1 (291-G1-10, R&D) as indicated.
# Embryos were fixed with 4% (w/v) paraformaldehyde (PFA) (ThermoFisher Scientific) for 1 h at 4° C. on a rotating shaker and analysed as described previously (Niakan and Eggan, Developmental Biology, 2013: doi: 10.1016/j.ydbio.2012.12.008). Briefly, embryos were then transferred through several washes of 0.1% (v/v) Tween-20 (Sigma Aldrich) diluted in Dulbeco's Phosphate-Buffer saline (PBS) without calcium and magnesium (Thermo Fisher Scientific) to remove residual paraformaldehyde. Embryos were placed for 20 minutes in 0.5% (v/v) Tween-20 for permeabilization. Embryos were blocked for 1 hour at room temperature in blocking solution (10% donkey serum diluted in 0.1% (v/v) Tween-20). Embryos were placed in primary antibodies at a concentration of 1:500 in blocking solution overnight at 4° C. on a rotating shaker. The following primary antibodies were used (all at 1:500 dilution): anti-NANOG (AF1997 R&D Systems, REC-RCAB0001P 2B Scientific, or ab21624, Abcam), anti-GATA6 (SC-9055, Santa Cruz) and anti-SOX17 (AF1924, R & D Systems). The following day, embryos were transferred through 4 washes of 0.1% (v/v) Tween-20 then placed in a last wash for 30 minutes. Secondary antibodies (Cy3, FITC or Cy5 donkey anti-rabbit, mouse or goat, Molecular Probes) were diluted in blocking solution at a 1:300 concentration. Embryos were placed in secondary antibody for 1 hour at room temperature on a rotating shaker, transferred through 4 washes of 0.1% (v/v) Tween-20 and placed in a last wash for 30 minutes. Embryos were placed in a 50 μL 1:3 dilution of Vectashield containing DAPI (Vector Labs): 0.1% (v/v) Tween-20 on a coverslip bottom dish (MatTek) for confocal imaging.
# Embryos were imaged on a Leica SP5 inverted confocal microscope (Leica Microsystems GmbH) at a z-section thickness of 3 μm or 2 μm for human or mouse embryos respectively. MINS 1.3 software was used to detect and segment nuclei and thus determine the number of cells in each embryo (http://katlab-tools.org/) (Lou et al., Stem Cell Reports 2014, doi: 10.1016/j.stemcr.2014.01.010). Confocal stacks in .tif format were loaded into the MINS pipeline for automated nuclear segmentation.
# The MINS segmentation output was manually checked for appropriate segmentation and mitotic nuclei were removed from the analysis. Data were subsequently plotted using GraphPad Prism version 6 (GraphPad Software, La Jolla, Calif.).
# hES cells = hES cells cultured in AI medium with inhibitors of FGF receptors, MEK/ERK or Activin/Nodal (TGFβ) signaling; type: cell-based, human; conditions: for morphology / survival of hES cells in AI medium with inhibitor: 100 nM PD173074, 1 μM PD0325901 or 10 μM SB-431542, vs DMSO control; for morphology / survival of hES cells in AI medium with inhibitor / expression of pluripotency proteins OCT4 and NANOG (immunofluorescence): 72 hours; for expression of pluripotency proteins OCT4 and NANOG (immunofluorescence): 100 nM PD173074 or 1 μM PD0325901
# Description: For culture in AI media, cells were maintained on plates coated with 0.5 μg/cm^2 Laminin-511 (Biolamina, Takara), and generally passaged with ReLeSR, similar to cells in mTeSR™1 on Laminin. Early passage newly-derived hES cells in AI medium were passaged by manual picking. Cells in AI media were also split using various dissociation reagents, as indicated in the Examples. For Accutase or AccuMax (StemCell Technologies), the dissociation reagent was added to wells for 5-10 minutes, the well contents were collected and pelleted, and the dissociation reagent removed. Cells were then resuspended in AI media with or without […] ROCK inhibitor for plating. For Gentle Cell Dissociation Reagent (StemCell Technologies), the reagent was added to wells for 6 minutes, then aspirated and AI medium added. Well contents were collected and disaggregated with a 5 ml stripette. For 0.5 mM EDTA (Sigma), the reagent was added for 5 minutes, then aspirated, and AI medium added and cells disaggregated. For salt-free PBS (Gibco, Life Technologies), the reagent was added for 6 minutes, aspirated, then AI medium added and cells disaggregated.
# For inhibitor treatment experiments, cell culture media was supplemented with 100 nM PD173074 (FGF receptor inhibitor), 1 μM PD0325901 (MEK inhibitor) or 10 μM SB-431542 (Activin/Nodal receptor inhibitor) as indicated in the Examples. Cells were exposed to inhibitors for 72 hours.
# On the day of fixation, medium was removed from pluripotent cell lines or differentiated cells and the cells were washed with Dulbeco's Phosphate-Buffer saline (PBS) without calcium and magnesium (Thermo Fisher Scientific). Cells were fixed with 4% (w/v) paraformaldehyde (PFA) (ThermoFisher Scientific) for 1 h and permeabilised with 0.5% (w/v) Triton X-100 or 0.5% (v/v) Tween-20 (Sigma Aldrich). Non-specific binding was minimised using 2-10% (v/v) donkey serum (AbCam) in PBS (containing 0.05% (v/v) Tween-20 or 0.01% Tween-20). The following primary antibodies were used (all at 1:500 dilution unless otherwise indicated): anti-NANOG (AF1997 R&D Systems; REC-RCAB0001P, 2B Scientific; 4903P, Cell Signaling Technologies or ab21624, Abcam), anti-SOX17 (AF1924, R&D Systems), anti-TRA-1-81 (MAB4381, Millipore; or 560072, BD Biosciences), anti-TUJ1 (T2200, Sigma), anti-FOXA2 (3143, Cell Signaling), anti-OCT4 (sc-5279, Santa Cruz or 2750S, Cell Signaling Technologies), anti-SSEA4 (MA1-021, Life Technologies or MC-813-70, DSHB, 1:100), anti-TRA-1-60 (MAB4360, Millipore, 1:100), anti-CXCR4 (MAB173, R&D), anti-Desmin (RB-9014-R7, Neomarkers, 1:50), anti-AFP (A0008, Dako), anti-cytokeratin-18 (ab668, Abcam). Primary antibody was removed by washing with PBS (containing 0.05% or 0.01% v/v Tween-20). Secondary antibodies (Alexa Fluor® 488, Alexa Fluor® 594, Alexa Fluor® 555 donkey anti-rabbit, mouse or goat, Molecular Probes) were diluted in blocking solution at a 1:300 concentration and added to the corresponding wells for 1 hour at room temperature. Cells were the washed several times in of 0.1% (v/v) Tween-20 and placed in a last wash for 30 minutes. A drop of Vectashield containing DAPI (Vector Labs) was added to each well prior to imaging.
# H9 cells = assay: Test of laminin variants as basement membrane substrate for H9 cells in mTeSR1; type: cell-based, human; conditions: 0.5 μg/cm^2 coating, mTeSR1 media, 3 days, vs Matrigel
# Text: We therefore interrogated the transcriptome data set to identify chemically defined and physiologically relevant substrates for the derivation of hES and iPS cells. We also interrogated the transcriptome data set and identified expression of transcripts for laminin-binding Integrin α6 and Integrin-β1 (ITGA6, ITGB1) in the human blastocyst, as shown in FIG. 3A. […] Consequently, recombinant human Laminin-511 (Biolamina) or a recombinant Laminin-511 E8 fragment (iMatrix-511, Takara) were selected as basement membrane substrates to culture hES cells, in order to recapitulate the niche within the blastocyst. To test the laminin variants, H9 cells in mTeSR™1 media were passaged onto plates coated with 0.5 μg/cm^2 of either iMatrix-511 (Takara) or LN-511 (Biolamina), as well as a control Matrigel plate, and cultured for 3 days.
# For culture in mTeSR™1 media (StemCell Technologies), cells were generally maintained on Matrigel-coated (BD Biosciences) tissue culture plates. Matrigel coating was performed for one hour at room temperature (RT) as per the manufacturer's instructions Cells were passaged as clumps using ReLeSR (Stemcell Technologies). ReLeSR was added to wells for 30 seconds at RT then aspirated, then plates were incubated for 5 minutes at 37° C., quenched with mTeSR™1 and lightly tapped to dislodge clumps of the desired size. […]
compound,measurement,setting,value
FGF2,GATA6 (extraembryonic marker) expression,human embryos; 100 ng/ml FGF2 from E2.5,still expressed
same,NANOG expression compared to untreated controls (immunofluorescence),"human embryos; 100 ng/ml FGF2 from E2.5, analysed at E6-7",loss of NANOG expression
same,NANOG expression,human embryos; 100 ng/ml FGF2 from E5 to E6-7,remained expressed
same,SOX17 (extraembryonic marker) expression,human embryos; 100 ng/ml FGF2 from E5 to E6-7,remained expressed
same,GATA6 (extraembryonic marker) expression,human embryos; 1 μg/ml FGF2 from E2.5,still expressed
same,NANOG expression compared to untreated controls (immunofluorescence),"human embryos; 1 μg/ml FGF2 from E2.5, analysed at E6-7",loss of NANOG expression
"O=C(NOC[C@H](O)CO)c1ccc(F)c(F)c1Nc1ccc(I)cc1F [MEK/ERK inhibitor, PD0325901]",morphology / survival of hES cells in AI medium with inhibitor,hES cells,retained the morphology of pluripotent cells
same,expression of pluripotency proteins OCT4 and NANOG (immunofluorescence),hES cells,retained the expression
Laminin-511: recombinant human Laminin-511 (Biolamina),pluripotency morphology of H9 cells on substrate,H9 cells,equivalent to Matrigel coating
"CCN(CC)CCCCNc1ncc2cc(-c3cc(OC)cc(OC)c3)c(NC(=O)NC(C)(C)C)nc2n1 [FGF receptor inhibitor, PD173074]",morphology / survival of hES cells in AI medium with inhibitor,hES cells,retained the morphology of pluripotent cells
same,expression of pluripotency proteins OCT4 and NANOG (immunofluorescence),hES cells,retained the expression
"NC(=O)c1ccc(-c2nc(-c3ccc4c(c3)OCO4)c(-c3ccccn3)[nH]2)cc1 [TGFβ inhibitor, SB-431542]",morphology / survival of hES cells in AI medium with inhibitor,hES cells,underwent apoptosis
same,NANOG expression in remaining colonies (immunofluorescence),"hES cells; 10 μM SB-431542, 3 days",undetectable in the majority of cells
IGF1,increase in the proportion of NANOG expressing cells compared to control embryos,"human embryos; 17 nM IGF1 from E2.5, analysed at E6-7, p-value<0.05",2 fold
same,KLF17 (epiblast marker) expression,human embryos; human embryos treated with IGF1,expressed in a higher proportion of cells
